Test results published in US20030203969A1, “Pharmaceutically active aromatic guanylhydrazones” (priority 2000, published 2003).

How the values were obtained:
[1] = target: T1, deoxyhypusine synthase (DHS) (Homo sapiens, UniProt P49366); assay: In vitro DHS screening assay (hypusine formation on eIF-5A); assay type: biochemical
T1 construct: made in house; host or cells: E. coli BL21 (DE3), pGex vector
T1 sequence (P49366 1-369): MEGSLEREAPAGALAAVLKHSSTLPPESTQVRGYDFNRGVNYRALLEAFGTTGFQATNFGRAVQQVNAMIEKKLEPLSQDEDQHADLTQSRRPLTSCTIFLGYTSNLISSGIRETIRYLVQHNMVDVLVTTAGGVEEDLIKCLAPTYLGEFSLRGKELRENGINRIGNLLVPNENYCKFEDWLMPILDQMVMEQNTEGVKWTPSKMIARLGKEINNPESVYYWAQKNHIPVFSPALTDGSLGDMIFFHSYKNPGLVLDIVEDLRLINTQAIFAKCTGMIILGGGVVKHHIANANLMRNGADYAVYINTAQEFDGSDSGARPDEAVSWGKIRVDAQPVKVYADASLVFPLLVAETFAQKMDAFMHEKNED

[2] = system: Vero cells
Experimental: A cytoprotection assay procedure using MTS is employed to evaluate compounds for antiviral activity against Respiratory Syncytial Virus (Long) in Vero (African green monkey, ATCC Cat. No. CCL-81) cells. The cells are pre-grown overnight at 37° C. (2×10^4/well in 96 well tissue culture plates) with 10% fetal Bovine serum containing Minimum Essential Medium. The positive control for the assay is Interferon-Gamma/Ribavirin. The infection medium contains reduced serum levels (2% FBS).
Using half log dilutions with high test starting at 100 μg/ml the drug dilutions are made and added to triplicate cultures in 0.1 ml volume and pre-titrated virus suspension is also added in 0.1 ml volume. […] CPE inhibition is determined by dye uptake procedure (Celltiter-MTS). […] The amount of soluble formazan produced by cellular reduction of the MTS is measured by the absorbance at 490 nm. The quantity of formazan product as measured by the amount of 490 nm absorbance is directly proportional to the number of living cells in the culture thus allowing the rapid quantitative analysis of the inhibition of virus-induced cell killing by the test substances. […]
The inhibitory drug concentration which reduces the viral replication by 95% (IC95) and the minimum drug concentration which inhibits cell growth by 95% (TC95) are calculated by using a regression analysis program for semilog curve fitting. […]

[3] = system: HIV; assay: Relevant HIV cellular systems (summary statements); assay type: cell-based
Excerpt: Thus another aspect of the present invention is directed to the use of the compounds of the general formula (I) and/or pharmaceutically active salts as inhibitors of elF-5A activation and HIV replication.
The present invention therefore provides a genus of guanylhydrazone-substituted compounds that are useful as inhibitors of HIV-1, HIV-2, HTLV-I as well as for treating diseases associated with those viruses.

[4] = system: EBV; assay: EBV replication in TPA-induced P3HR-1 cells (TaqMan PCR); assay type: cell-based, Epstein-Barr virus
Experimental: Human P3HR-1 cells are latently infected with EBV. Culturing these cells in the presence of phorbol ester induces a lytic infection cycle, resulting in stimulation of viral replication within the cells. Compound efficacy in this assay is determined using TaqMan PCR technology, and compound toxicity is measured by addition of Promega's Cell Titer Aqueous One Solution (metabolic dye).
1. P3HR-1 cells are counted by the trypan blue dye exclusion method, and the cell count/ml is determined. Cells are pelleted by centrifugation and washed once with PBS to minimize the basal level of virus released from untreated cells which spontaneously enter the lytic cycle and release virus.
2. Cells are resuspended in fresh media and adjusted to the appropriate cell density. Cells are then plated in the interior wells of 96-well round-bottom microtiter plates in a volume of 50 μl per well.
3. The phorbol ester TPA is added to appropriate wells in a volume of 50 μl per well to yield a final concentration of 15 ng/ml. Medium is added in place of TPA in three wells to serve as a negative control.
4. […]
5. A standard curve prepared from known copy numbers of DNA isolated from P3HR-1 cells and amplified is run with each plate in order to quantitate the DNA copy number in each original sample. The efficacy of the compound is determined by comparing DNA copy numbers from test wells with those of control wells.

[5] = system: NNRTI-resistant HIV-1; assay: Inhibition of multiple anti-retroviral drug resistant HIV-1 strains: NNRTI-resistant; assay type: cell-based
Experimental: In addition, various different “types” of multiple anti-retroviral drug resistant HIV-1 strains were also tested: […]

CC(=NNC(=N)N)c1cc(NC(=O)CCCCCCCCC(=O)Nc2cc(C(C)=NNC(=N)N)cc(C(C)=NNC(=N)N)c2)cc(C(C)=NNC(=N)N)c1 [Compound 4, N,N′-bis (3,5-diacetylphenyl) decane diamide tetrakis (amidinohydrazone)]
inhibition of the hypusine formation on the elF-5A protein [1]: potent inhibitors
CC50 [2]: 8.68 µM
TC95 [2]: 30.20 µM
cellular toxicities at effective antiviral dosages ([3]; HIV cellular systems): without apparent cellular toxicities
inhibition of HIV replication ([3]; T-cell-tropic, macrophage-tropic, primary patient isolates, multidrug-resistant HIV strains): submicromolar range
Comments ([4]; EBV, P3HR1 cells): Significant Activity
IC50 ([4]; EBV-infected P3HR1 cells, day 4): 2.3 µM
[%] inhibition of virus replication ([5]; NNRTI-resistant HIV-1, 0.5 μM): 71%
[%] inhibition of virus replication ([5]; NNRTI-resistant HIV-1, 1.0 μM): 82%
